Earlier results on eight compounds are cited in patent US11612579B2, “Compositions comprising a fatty acid oil mixture and a surfactant, and methods and uses thereof” (PRONOVA BIOPHARMA NORGE AS, priority 2009, dated 2023).

Several values for one entry are separate records, joined by “and”; a condition that tells them apart may be missing. Equal entries are not always repeated.

For this data set the following is noted: commercially-available surfactants.
For the compound `CCCCCCCCCCCCCCCCCC(=O)OCC(O)CO` (centres unmarked) [Glyceryl monostearate], the “HLB Value” was 3.3 and 3.8.
For the compound sorbitan monostearate [Span ® 60], the “HLB Value” is reported as 4.7.
For the compound sorbitan monooleate [Span ® 80], the “HLB Value” was 4.3.
With sorbitan monopalmitate [Span ® 40], the “HLB Value” is listed as 6.7.
`CCCCCCCCCCCCCCCC[N+](C)(C)C.[Br-]` [Cetrimonium bromide]: the “HLB Value” was 23.3.
For `CCCCCCCCCCCCCCCCCC(=O)OCCOC(=O)CCCCCCCCCCCCCCCCC` [Ethylene glycol distearate], the “HLB Value” is reported as 1.5.
Take `CCCCCCCCCCCC(=O)OCCOCCO` [Diethylene glycol monolaurate]: the “HLB Value” is 6.1.
Regarding `CCCCCCCCCCCCOS(=O)(=O)[O-].[Na+]` [Sodium lauryl sulphate], the “HLB Value” was 40.
